Laboratory results taken from ChEMBL document CHEMBL4651402, “Screening of ~5500 FDA-approved drugs and clinical candidates for anti-SARS-CoV-2 activity” (2021).

System: SARS-CoV-2
Assay: microbe, parasite or virus in culture
Settings: Severe acute respiratory syndrome coronavirus 2, Vero C1008, 48 h

Structure (SMILES)	IC50 [µM]	IC50 (read-out: pIC50 (converted)) [µM]
Cc1cn[nH]c1 [FOMEPIZOLE]	> 20	> 20
CC(C)=CCC/C(C)=C/CC/C(C)=C/CSc1ccccc1C(=O)O [SALIRASIB]	> 20	> 20
NC1=NC(=O)C(c2ccccc2)O1 (stereo not drawn) [PEMOLINE]	> 20	> 20
O=C(NCC12CC3CC(CC(C3)C1)C2)c1cc(CCCNCCCO)ccc1Cl [AZD9056]	> 20	> 20
CC12CCC(=O)C=C1CCC1C2C(=O)CC2(C)C1CCC2(O)C(=O)CO (stereo not drawn)	> 20	> 20
C/N=C(/NC)NCc1ccc(OC)cc1 [MEOBENTINE]	> 20	> 20
CCOc1ccc(NC(=S)Nc2ccc(OCC)cc2)cc1 [ETOCARLIDE]	> 20	> 20
C[C@@H](Oc1cc(-c2cnn(C3CCNCC3)c2)cnc1N)c1c(Cl)ccc(F)c1Cl [CRIZOTINIB]	> 20	> 20
Cc1c(Cl)cccc1Nc1ncccc1C(=O)OCC(O)CO (stereo not drawn) [CLONIXERIL]	> 20	> 20
C=CC(=O)Nc1cccc(Nc2nc(Nc3ccc(N4CCN(C(C)=O)CC4)cc3OC)ncc2C(F)(F)F)c1 [ROCILETINIB]	> 20	> 20
CCOc1ccc2ccccc2c1C(=O)N[C@@H]1C(=O)N2[C@@H]1SC(C)(C)[C@@H]2C(=O)O [NAFCILLIN]	> 20	> 20
CO[C@H]1/C=C/O[C@@]2(C)Oc3c(C)c(O)c4c(c3C2=O)C2=NC3(CCN(CC(C)C)CC3)NC2=C(NC(=O)/C(C)=C\C=C\[C@H](C)[C@H](O)[C@@H](C)[C@@H](O)[C@@H](C)[C@H](OC(C)=O)[C@@H]1C)C4=O [RIFABUTIN]	> 20	> 20
CC1(C)S[C@@H]2[C@H](NC(=O)[C@H](N)c3ccccc3)C(=O)N2[C@H]1C(=O)OC1OC(=O)c2ccccc21 (stereo partly drawn) [TALAMPICILLIN]	> 20	> 20
CNCC(O)c1ccc(O)c(OC)c1 (stereo not drawn) [METANEPHRINE]	> 20	> 20
O=C(Cc1ccc(-c2ccc(OCCN3CCOCC3)cc2)cn1)NCc1ccccc1 [TIRBANIBULIN]	> 20	> 20
NC[C@H](O)c1ccc(O)c(O)c1 [NOREPINEPHRINE]	> 20	> 20
COCCCOc1cc(C[C@@H](C[C@H](N)[C@@H](O)C[C@H](C(=O)NCC(C)(C)C(N)=O)C(C)C)C(C)C)ccc1OC	> 20	> 20
CC[C@@H](O)C(C[C@@H](C)N(C)C)(c1ccccc1)c1ccccc1 [ALPHAMETHADOL]	> 20	> 20
CC(C)S(=O)(=O)n1c(N)nc2ccc(/C(=N\O)c3ccccc3)cc21 [ZINVIROXIME]	> 20	> 20
CN1c2ccccc2[C@H](NCCCCCCC(=O)O)c2ccc(Cl)cc2S1(=O)=O	> 20	> 20
COC(=O)C1=COC(C)C2CN3CCc4c([nH]c5ccccc45)C3CC12 (stereo not drawn)	> 20	> 20
O=C(O)Cc1c[nH]cn1 [IMIDAZOLE ACETIC ACID]	> 20	> 20
Cc1cc(CCN2CCN(c3cccc(Cl)c3)CC2)n[nH]1 [MEPIPRAZOLE]	> 20	> 20
C=C[C@@]1(C)CC(=O)[C@]2(O)[C@@]3(C)[C@@H](O)CCC(C)(C)[C@@H]3[C@H](O)[C@H](OC(C)=O)[C@@]2(C)O1 [COLFORSIN]	> 20	> 20
C#C[C@@]1(O)CCC2C3CCc4cc(OC)ccc4C3CCC21C (stereo partly drawn)	> 20	> 20
N[C@@H](Cc1ccc(O)c(O)c1)C(=O)O [LEVODOPA]	> 20	> 20
Nc1c(O)cccc1C(=O)CC(N)C(=O)O (stereo not drawn)	> 20	> 20
O=C1NC(=O)C(Cc2ccc3cc(OCc4ccccc4F)ccc3c2)S1 (stereo not drawn) [NETOGLITAZONE]	> 20	> 20
OCC(O)CN1CCN(c2ccccc2)CC1 (stereo not drawn) [DROPROPIZINE]	> 20	> 20
